Where two headings read alike, the source gives them in different places.
Assays:
[1] = system: highly resistant strains of Pseudomonas aeruginosa (producing both a plasmid-and chromosomally-mediated β-lactamase); assay: MIC of compound (i) alone and in combination with compound (iii), Pseudomonas aeruginosa strains; type: cell-based; conditions: for MIC µg/ml compound (i) compound (iii) (µg/ml) 2: with compound (iii) 2 µg/ml; for MIC µg/ml compound (i) compound (iii) (µg/ml) 5: with compound (iii) 5 µg/ml; for MIC µg/ml compound (i) compound (iii) (µg/ml) 10: with compound (iii) 10 µg/ml
[2] = system: K-aerogenes strains producing both a plasmid-mediated and chromosomally mediated β-lactamase; assay: MIC of compound (i) alone and in combination with compound (iii), K. aerogenes strains; type: cell-based, Klebsiella aerogenes; conditions: for MIC: Klebsiella aerogenes

For `CC1(C)S[C@@H]2[C@H](NC(=O)[C@H](NC(=O)Nc3cnc(Nc4ccc(S(N)(=O)=O)cc4)nc3O)c3ccc(O)cc3)C(=O)N2[C@H]1C(=O)O` [compound (i)], the “MIC µg/ml compound (i) compound (iii) (µg/ml) 2” value ([1]; strain Horton) was 10 µg/mL, the “MIC µg/ml compound (i) compound (iii) (µg/ml) 5” value ([1]; strain Horton) was 10 µg/mL and the “MIC µg/ml compound (i) compound (iii) (µg/ml) 10” value ([1]; strain Horton) was 20 µg/mL. For the same compound, the “MIC µg/ml compound (i) alone” value ([1]; strain P22, compound (i) alone) was >160 µg/mL, the “MIC µg/ml compound (i) compound (iii) (µg/ml) 1” value ([1]; strain P22, with compound (iii) 1 µg/ml) was 10 µg/mL and the “MIC µg/ml compound (i) compound (iii) (µg/ml) 2” value ([1]; strain P22) was 5 µg/mL. The “MIC µg/ml compound (i) compound (iii) (µg/ml) 5” value ([1]; strain P22) was 5 µg/mL, the “MIC µg/ml compound (i) compound (iii) (µg/ml) 10” value ([1]; strain P22) was 5 µg/mL and the MIC ([2]; read-out: MIC µg/ml compound (i) alone) was > 160 µg/mL. The MIC ([2]; read-out: MIC µg/ml compound (i) alone, Geometric mean) was > 160 µg/mL, the “MIC µg/ml compound (i) compound (iii) (µg/ml) 1, Geometric mean” value ([2]; geometric mean of 11 K. aerogenes strains, with compound (iii) 1 µg/ml, 95% confidence limits (0.49-50.9)) was 5.0 µg/mL and the “MIC µg/ml compound (i) compound (iii) (µg/ml) 2, Geometric mean” value ([2]; geometric mean of 11 K. aerogenes strains, with compound (iii) 2 µg/ml, 95% confidence limits (0.3-14.4)) was 2.1 µg/mL. The “MIC µg/ml compound (i) compound (iii) (µg/ml) 5, Geometric mean” value ([2]; geometric mean of 11 K. aerogenes strains, with compound (iii) 5 µg/ml, 95% confidence limits (0.14-4.5)) was 0.81 µg/mL, the “MIC µg/ml compound (i) compound (iii) (µg/ml) 10, Geometric mean” value ([2]; geometric mean of 11 K. aerogenes strains, with compound (iii) 10 µg/ml, 95% confidence limits (0.04-0.9)) was 0.19 µg/mL and the “MIC µg/ml compound (i) alone” value ([2]; strain 11793) was >160 µg/mL. For the same compound, the “MIC µg/ml compound (i) compound (iii) (µg/ml) 1” value ([2]; strain 11793, with compound (iii) 1 µg/ml) was 10 µg/mL, the “MIC µg/ml compound (i) compound (iii) (µg/ml) 2” value ([2]; strain 11793, with compound (iii) 2 µg/ml) was 5 µg/mL and the “MIC µg/ml compound (i) compound (iii) (µg/ml) 5” value ([2]; strain 11793, with compound (iii) 5 µg/ml) was 2.5 µg/mL. For the same compound, the “MIC µg/ml compound (i) compound (iii) (µg/ml) 10” value ([2]; strain 11793, with compound (iii) 10 µg/ml) was 1.25 µg/mL, the “MIC µg/ml compound (i) alone” value ([2]; strain 11974) was >160 µg/mL and the “MIC µg/ml compound (i) compound (iii) (µg/ml) 1” value ([2]; strain 11974, with compound (iii) 1 µg/ml) was 0.31 µg/mL. For the same compound, the “MIC µg/ml compound (i) compound (iii) (µg/ml) 2” value ([2]; strain 11974, with compound (iii) 2 µg/ml) was 0.16 µg/mL, the “MIC µg/ml compound (i) compound (iii) (µg/ml) 5” value ([2]; strain 11974, with compound (iii) 5 µg/ml) was 0.08 µg/mL and the “MIC µg/ml compound (i) compound (iii) (µg/ml) 10” value ([2]; strain 11974, with compound (iii) 10 µg/ml) was 0.04 µg/mL. For the same compound, the “MIC µg/ml compound (i) compound (iii) (µg/ml) 2” value ([2]; strain BED4, with compound (iii) 2 µg/ml) was 2.5 µg/mL, the “MIC µg/ml compound (i) compound (iii) (µg/ml) 5” value ([2]; strain BED4, with compound (iii) 5 µg/ml) was 1.25 µg/mL and the “MIC µg/ml compound (i) compound (iii) (µg/ml) 10” value ([2]; strain BED4, with compound (iii) 10 µg/ml) was 0.31 µg/mL. The “MIC µg/ml compound (i) alone” value ([2]; strain BED6) was >160 µg/mL, the “MIC µg/ml compound (i) compound (iii) (µg/ml) 1” value ([2]; strain BED6, with compound (iii) 1 µg/ml) was 0.62 µg/mL and the “MIC µg/ml compound (i) compound (iii) (µg/ml) 2” value ([2]; strain BED6, with compound (iii) 2 µg/ml) was 0.31 µg/mL. For the same compound, the “MIC µg/ml compound (i) compound (iii) (µg/ml) 5” value ([2]; strain BED6, with compound (iii) 5 µg/ml) was 0.16 µg/mL, the “MIC µg/ml compound (i) compound (iii) (µg/ml) 10” value ([2]; strain BED6, with compound (iii) 10 µg/ml) was 0.08 µg/mL and the “MIC µg/ml compound (i) alone” value ([2]; strain BED9) was >160 µg/mL. For the same compound, the “MIC µg/ml compound (i) compound (iii) (µg/ml) 1” value ([2]; strain BED9, with compound (iii) 1 µg/ml) was 0.31 µg/mL, the “MIC µg/ml compound (i) compound (iii) (µg/ml) 2” value ([2]; strain BED9, with compound (iii) 2 µg/ml) was 0.31 µg/mL and the “MIC µg/ml compound (i) compound (iii) (µg/ml) 5” value ([2]; strain BED9, with compound (iii) 5 µg/ml) was 0.16 µg/mL. For the same compound, the “MIC µg/ml compound (i) compound (iii) (µg/ml) 10” value ([2]; strain BED9, with compound (iii) 10 µg/ml) was 0.04 µg/mL, the “MIC µg/ml compound (i) alone” value ([2]; strain Ba95) was >160 µg/mL and the “MIC µg/ml compound (i) compound (iii) (µg/ml) 1” value ([2]; strain Ba95, with compound (iii) 1 µg/ml) was 0.31 µg/mL. For the same compound, the “MIC µg/ml compound (i) compound (iii) (µg/ml) 2” value ([2]; strain Ba95, with compound (iii) 2 µg/ml) was 0.31 µg/mL, the “MIC µg/ml compound (i) compound (iii) (µg/ml) 5” value ([2]; strain Ba95, with compound (iii) 5 µg/ml) was 0.16 µg/mL and the “MIC µg/ml compound (i) compound (iii) (µg/ml) 10” value ([2]; strain Ba95, with compound (iii) 10 µg/ml) was 0.02 µg/mL. The “MIC µg/ml compound (i) alone” value ([2]; strain SA4) was >160 µg/mL, the “MIC µg/ml compound (i) compound (iii) (µg/ml) 1” value ([2]; strain SA4, with compound (iii) 1 µg/ml) was 2.5 µg/mL and the “MIC µg/ml compound (i) compound (iii) (µg/ml) 2” value ([2]; strain SA4, with compound (iii) 2 µg/ml) was 1.25 µg/mL. The “MIC µg/ml compound (i) compound (iii) (µg/ml) 5” value ([2]; strain SA4, with compound (iii) 5 µg/ml) was 0.31 µg/mL, the “MIC µg/ml compound (i) compound (iii) (µg/ml) 10” value ([2]; strain SA4, with compound (iii) 10 µg/ml) was 0.08 µg/mL and the “MIC µg/ml compound (i) alone” value ([2]; strain VA1) was >160 µg/mL. The “MIC µg/ml compound (i) compound (iii) (µg/ml) 1” value ([2]; strain VA1, with compound (iii) 1 µg/ml) was 10 µg/mL, the “MIC µg/ml compound (i) compound (iii) (µg/ml) 2” value ([2]; strain VA1, with compound (iii) 2 µg/ml) was 5 µg/mL and the “MIC µg/ml compound (i) compound (iii) (µg/ml) 5” value ([2]; strain VA1, with compound (iii) 5 µg/ml) was 2.5 µg/mL. For the same compound, the “MIC µg/ml compound (i) compound (iii) (µg/ml) 10” value ([2]; strain VA1, with compound (iii) 10 µg/ml) was 0.31 µg/mL, the “MIC µg/ml compound (i) alone” value ([2]; strain VA2) was >160 µg/mL and the “MIC µg/ml compound (i) compound (iii) (µg/ml) 1” value ([2]; strain VA2, with compound (iii) 1 µg/ml) was 40 µg/mL. For the same compound, the “MIC µg/ml compound (i) compound (iii) (µg/ml) 2” value ([2]; strain VA2, with compound (iii) 2 µg/ml) was 10 µg/mL, the “MIC µg/ml compound (i) compound (iii) (µg/ml) 5” value ([2]; strain VA2, with compound (iii) 5 µg/ml) was 2.5 µg/mL and the “MIC µg/ml compound (i) compound (iii) (µg/ml) 10” value ([2]; strain VA2, with compound (iii) 10 µg/ml) was 0.62 µg/mL. The “MIC µg/ml compound (i) alone” value ([2]; strain VA3) was >160 µg/mL, the “MIC µg/ml compound (i) compound (iii) (µg/ml) 1” value ([2]; strain VA3, with compound (iii) 1 µg/ml) was 40 µg/mL and the “MIC µg/ml compound (i) compound (iii) (µg/ml) 2” value ([2]; strain VA3, with compound (iii) 2 µg/ml) was 10 µg/mL. For the same compound, the “MIC µg/ml compound (i) compound (iii) (µg/ml) 5” value ([2]; strain VA3, with compound (iii) 5 µg/ml) was 2.5 µg/mL, the “MIC µg/ml compound (i) compound (iii) (µg/ml) 10” value ([2]; strain VA3, with compound (iii) 10 µg/ml) was 0.31 µg/mL and the “MIC µg/ml compound (i) alone” value ([2]; strain VA5) was >160 µg/mL. For the same compound, the “MIC µg/ml compound (i) compound (iii) (µg/ml) 1” value ([2]; strain VA5, with compound (iii) 1 µg/ml) was >80 µg/mL, the “MIC µg/ml compound (i) compound (iii) (µg/ml) 2” value ([2]; strain VA5, with compound (iii) 2 µg/ml) was 80 µg/mL and the “MIC µg/ml compound (i) compound (iii) (µg/ml) 5” value ([2]; strain VA5, with compound (iii) 5 µg/ml) was 20 µg/mL. For the same compound, the “MIC µg/ml compound (i) compound (iii) (µg/ml) 10” value ([2]; strain VA5, with compound (iii) 10 µg/ml) was 2.5 µg/mL.
